Each block holds one compound with its values, some of them ahead of it. Active and inactive are the calls of the source.
Columns and labels:
[1] = target: Cytochrome P450 2C19 (Homo sapiens, UniProt P33261); test: Cytochrome panel assay with activity outcomes. Panel member name: p450-cyp2c19 Compounds with AC50 equal or less than 10 uM are considered active; type: functional
[2] = cytotoxicity toward NIH3T3 fibroblasts, dose response, counter-screen, cell-based, ATP luminescence, mouse fibroblasts (AID 2010); type: functional;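 note: cells exposed to compound for about 90 hours before reading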
[3] = inhibitors of intracellular T. cruzi replication, confirmation, NIH3T3 host cells, beta-gal luminescence (AID 2044); type: functional, cell-based;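 note: intracellular parasites grown in NIH/3T3 mouse fibroblasts as host cells; luminescent beta-galactosidase reporter signal from transgenic T. cruzi replicating inside host cells; inhibitors lower the luminescence signal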
[4] = target: Cytochrome P450 3A4 (Homo sapiens, UniProt P08684);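 note: CYP3A4 tested as one member of a cytochrome P450 panel screen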
Cytochrome P450 3A4, sequence (P08684 whole entry): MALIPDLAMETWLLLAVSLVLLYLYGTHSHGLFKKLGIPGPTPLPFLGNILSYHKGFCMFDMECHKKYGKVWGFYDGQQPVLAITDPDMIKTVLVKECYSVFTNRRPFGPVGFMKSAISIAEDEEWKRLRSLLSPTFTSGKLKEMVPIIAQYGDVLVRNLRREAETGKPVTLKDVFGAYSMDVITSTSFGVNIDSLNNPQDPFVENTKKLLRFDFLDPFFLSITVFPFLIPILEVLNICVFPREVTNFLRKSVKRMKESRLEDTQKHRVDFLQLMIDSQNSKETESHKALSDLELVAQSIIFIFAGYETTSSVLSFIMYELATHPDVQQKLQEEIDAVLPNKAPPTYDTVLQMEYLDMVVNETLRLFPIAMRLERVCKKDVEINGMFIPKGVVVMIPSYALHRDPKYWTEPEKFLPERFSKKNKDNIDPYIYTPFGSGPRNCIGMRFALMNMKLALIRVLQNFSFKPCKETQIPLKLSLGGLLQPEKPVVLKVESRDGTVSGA

[5] = target: T1, Cytochrome P450 1A2 (Homo sapiens, UniProt P05177)
T1 sequence (P05177 whole entry): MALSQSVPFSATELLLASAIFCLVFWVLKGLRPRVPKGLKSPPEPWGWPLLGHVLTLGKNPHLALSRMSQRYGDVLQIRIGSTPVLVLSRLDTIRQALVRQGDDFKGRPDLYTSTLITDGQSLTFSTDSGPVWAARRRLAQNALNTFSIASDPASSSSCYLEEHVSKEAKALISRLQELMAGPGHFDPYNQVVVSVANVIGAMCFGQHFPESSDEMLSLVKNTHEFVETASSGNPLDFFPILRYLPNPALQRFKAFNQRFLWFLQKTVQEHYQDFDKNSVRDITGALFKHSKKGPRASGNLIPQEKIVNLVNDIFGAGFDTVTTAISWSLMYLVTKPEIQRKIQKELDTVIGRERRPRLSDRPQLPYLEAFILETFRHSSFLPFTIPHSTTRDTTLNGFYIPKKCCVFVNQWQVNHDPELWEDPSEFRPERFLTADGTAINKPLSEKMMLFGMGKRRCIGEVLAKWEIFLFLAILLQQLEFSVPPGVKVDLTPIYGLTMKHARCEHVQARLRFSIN

[6] = Luminescence Cell-Based Dose Retest to Confirm Inhibitors of Cancer Stem Cells. [Related pubchem assays (depositor defined):AID2717, AID2721]; type: functional; conditions: Homo sapiens
[7] = test system: Streptococcus; test: Group A Streptococcus viability loss, dose response, counter-screen for streptokinase expression inhibitor project, luminescence, BacTiterGlo (AID 1915); type: functional, organism-based;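 note: potency for reduction of bacterial viability or growth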
[8] = test system: Streptococcus sp. 'group A'; test: growth inhibition of control SK(-) GAS strain, dose response, counter-screen for streptokinase expression inhibitor project, luminescence, kanamycin, BacTiterGlo, confirmation (AID 1900); type: functional, organism-based

Cytochrome P450 2C19, sequence (P33261 whole entry): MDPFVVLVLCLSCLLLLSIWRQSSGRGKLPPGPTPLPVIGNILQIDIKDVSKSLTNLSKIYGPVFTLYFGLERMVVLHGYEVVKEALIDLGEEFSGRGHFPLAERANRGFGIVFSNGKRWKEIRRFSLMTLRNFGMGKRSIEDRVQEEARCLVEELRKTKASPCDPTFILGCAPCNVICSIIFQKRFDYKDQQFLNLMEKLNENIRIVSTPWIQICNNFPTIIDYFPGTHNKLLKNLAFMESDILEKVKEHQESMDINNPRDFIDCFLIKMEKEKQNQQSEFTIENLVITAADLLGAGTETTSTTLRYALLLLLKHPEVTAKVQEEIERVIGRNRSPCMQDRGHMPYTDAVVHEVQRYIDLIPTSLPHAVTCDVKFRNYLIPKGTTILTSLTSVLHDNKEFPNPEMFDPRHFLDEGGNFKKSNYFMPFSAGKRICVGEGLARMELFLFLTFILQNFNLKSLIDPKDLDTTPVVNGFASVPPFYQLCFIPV

AC50 ([1]; read-out: AC50): 20 µM (inconclusive)
SMILES: CCn1c(SCC(=O)Nc2sc3c(c2C#N)CCC(C(C)(C)C)C3)nnc1-c1ccco1 (stereo unspecified)

AC50 ([1]; read-out: AC50): 39.8 µM (inconclusive)
SMILES: Cc1cccc(CNc2ncnc3ccc(-c4cccnc4)cc23)c1

SMILES: COc1cccc(CC2(CO)CCCN(Cc3ccc(-c4ccco4)cc3)C2)c1 (stereo unspecified)
EC50 [2]: > 60 µM (not active)
EC50 [3]: 0.621 µM (active)

AC50 [4]: 11.2 µM (inconclusive)
SMILES: CC1CCCC(NC(=O)C2CCN(S(=O)(=O)N3CCOCC3)CC2)C1C (stereo unspecified)

SMILES: O=C(Nc1cc(Sc2nc3ccccc3s2)cc([N+](=O)[O-])c1)c1ccccc1
EC50 [2]: > 60 µM (not active)
EC50 [3]: 1.42 µM (active)

SMILES: Cc1nc(NC(=O)c2ccccc2)sc1-c1csc(NCCc2ccccc2)n1
EC50 [2]: > 60 µM (not active)
EC50 [3]: 2.25 µM (active)

AC50 [5]: 39.8 µM (inconclusive)
SMILES: N=C(C[C@@H](O)COc1ccccc1-c1ccccc1)N1CCCCC1

AC50 [5]: 25.1 µM (inconclusive)
AC50 ([1]; read-out: AC50): 2 µM (inconclusive)
SMILES: N#Cc1cccc(NC(=O)N2CC3(CCN(C(=O)c4ccco4)CC3)C2)c1

AC50 ([1]; read-out: AC50): 25.1 µM (inconclusive)
SMILES: CN(Cc1ccco1)c1ccnc(-c2cccc(NS(C)(=O)=O)c2)n1

SMILES: CCN(CC)S(=O)(=O)c1ccc2c(c1)c(=O)c(C(=O)NCCN(C)CCc1ccccc1)cn2C
EC50 [2]: > 60 µM (not active)
EC50 [3]: 0.991 µM (active)

AC50 [4]: 31.6 µM (inconclusive)
AC50 [5]: 31.6 µM (inconclusive)
SMILES: C[C@@H]1c2ccccc2CN1CC1=NCCN1

SMILES: CN1CCN(C(=O)COc2ccc(S(=O)(=O)Nc3ccc(F)cc3)cc2)CC1
EC50 [2]: > 60 µM (not active)
EC50 [3]: 0.142 µM (active)

AC50 ([1]; read-out: AC50): 6.31 µM (inconclusive)
SMILES: O[C@@H](c1cc(-c2ccc(Cl)cc2)nc2ccccc12)[C@@H]1CCCCN1

AC50 [4]: 25.1 µM (inconclusive)
SMILES: Cc1nnc(-c2cnn(-c3ccccc3)c2N)n1Cc1ccc(F)cc1

SMILES: CN1CCC(N(C)C(=O)c2ccccc2Nc2ccc(SC(F)F)cc2)CC1
EC50 [2]: > 60 µM (not active)
EC50 [3]: 0.384 µM (active)

AC50 [4]: 25.1 µM (inconclusive)
AC50 ([1]; read-out: AC50): 11.2 µM (inconclusive)
SMILES: COc1ccc(Cl)cc1C(=O)Nn1cnc2ccccc2c1=O

SMILES: CN1CCN(CC(O)COCCOc2ccc(Br)cc2)CC1 (stereo unspecified)
EC50 [2]: > 60 µM (not active)
EC50 [3]: 0.542 µM (active)

SMILES: O=C(c1ccc2c(c1)OCO2)C1CCCN(C2CCN(CCc3ccccc3)CC2)C1 (stereo unspecified)
EC50 [2]: > 60 µM (not active)
EC50 [3]: 1.72 µM (active)

AC50 [4]: 12.6 µM (inconclusive)
AC50 [5]: 31.6 µM (inconclusive)
AC50 ([1]; read-out: AC50): 39.8 µM (inconclusive)
SMILES: Cn1cccc1C(=O)N1CCC[C@@]2(CCN(c3ccccn3)C2)C1

SMILES: Cc1ccc(-n2cc(CN(C)Cc3ncc[nH]3)c(-c3cccc(C)c3)n2)cc1
EC50 [2]: > 60 µM (not active)
EC50 [3]: 1.16 µM (active)

AC50 [4]: 31.6 µM (inconclusive)
SMILES: CC(=O)Nc1ccc(S(=O)(=O)NC(CC(=O)NCCCN2CCOCC2)C(C)C)cc1 (stereo unspecified)

SMILES: CC(C)(C)C1CCC(OCC(O)CN2CCN(Cc3ccccc3)CC2)CC1 (stereo unspecified)
EC50 [2]: > 60 µM (not active)
EC50 [3]: 1.15 µM (active)

AC50 [4]: 15.8 µM (inconclusive)
SMILES: O=c1c(-c2cccc(Cl)c2)nc2cncnc2n1Cc1ccc(F)cc1

AC50 ([1]; read-out: AC50): 7.94 µM (inconclusive)
SMILES: Cc1nc2cnc(Oc3cccc(Cl)c3)nc2n(CCc2ccccc2)c1=O

AC50 [4]: 2.82 µM (inconclusive)
SMILES: CCCOc1ccc(/C=C/C(=O)Nc2ccc([N+](=O)[O-])cc2C)cc1OC

SMILES: NC(=O)CC(NC(=O)c1ccc(Br)cc1)c1ccc(NCc2ccc(F)cc2)c([N+](=O)[O-])c1 (stereo unspecified)
AC50 [6]: 3.96 µM (active)

AC50 [1]: inconclusive
SMILES: C[C@@H]1/C=C\CC(=O)OC[C@H](C)C(=O)N[C@@H](C)C(=O)OC1

AC50 ([1]; read-out: AC50): 20 µM (inconclusive)
SMILES: CC(=O)NCCNc1ncncc1-c1ccc(N(C)C)cc1

SMILES: COc1ccc(N=C(S)NC(NC(=O)c2cccc3ccccc23)C(Cl)(Cl)Cl)c([N+](=O)[O-])c1 (stereo unspecified)
EC50 [2]: > 30 µM (not active)
EC50 [3]: 2.25 µM (active)

SMILES: Cc1nn(-c2ccc(F)cc2)c2nc(N)c(C#N)c(-c3ccc(O)c(O)c3)c12
EC50 [2]: 15.6 µM (active)
EC50 [3]: 2.04 µM (active)

SMILES: Cn1c(=O)c2c(nc(C(=N)SCC(=O)O)n2C)n(C)c1=O
AC50 [1]: inconclusive

SMILES: COc1ccc(CCn2c(SCCN3CCCCC3)nc3ccccc3c2=O)cc1OC
EC50 [2]: > 60 µM (not active)
EC50 [3]: 0.936 µM (active)

AC50 [5]: 5.01 µM (inconclusive)
SMILES: O=S(=O)(NCc1cn2ccsc2n1)c1ccc(Oc2ccccc2)cc1

SMILES: N#C/C(=C(/O)c1ccc2c(c1)OCO2)c1nc2cc(C(F)(F)F)ccc2s1
EC50 [7]: 4.33 µM (active)
EC50 [8]: 2.89 µM (active)

AC50 [5]: 6.31 µM (inconclusive)
AC50 ([1]; read-out: AC50): 28.2 µM (inconclusive)
SMILES: COCC(=O)Oc1c(S(=O)(=O)c2ccc(C)cc2)c(C)nn1-c1ccccc1

SMILES: Cc1nc2c(-c3ccccc3)cnn2c(O)c1Cc1ccccc1
EC50 [2]: 14.6 µM (active)
EC50 [3]: 2.22 µM (active)

AC50 ([1]; read-out: AC50): 3.16 µM (inconclusive)
SMILES: COc1ccc(Oc2nc3ccccc3nc2C(F)(F)F)cc1

AC50 [5]: 20 µM (inconclusive)
SMILES: Clc1ccccc1-c1nc(NC2CCNCC2)c2ccccc2n1

AC50 [4]: 3.98 µM (inconclusive)
AC50 [5]: 15.8 µM (inconclusive)
AC50 ([1]; read-out: AC50): 15.8 µM (inconclusive)
SMILES: Cn1cccc1C(=O)N1CCC2(CCCN(Cc3ccncc3)C2)CC1

AC50 [1]: inconclusive
SMILES: O[C@@H]1[C@@H](OCc2ccccc2)OC[C@H](O)[C@@H]1O

SMILES: Cc1cc(C)cc(Oc2ncnc3c2ncn3Cc2c(Cl)cccc2Cl)c1
EC50 [2]: > 60 µM (not active)
EC50 [3]: 1.95 µM (active)

AC50 ([1]; read-out: AC50): 14.1 µM (inconclusive)
SMILES: c1csc(CNCCCN2CCOCC2)c1

SMILES: CN1CCN(Cc2nc3cccc4c3c([n+]2[O-])-c2ccccc2-4)CC1
AC50 [4]: 3.98 µM (inconclusive)

SMILES: CC(C)[C@@H]1CN[C@H](C(=O)O)[C@@H]1CC(=O)O
AC50 [5]: 39.8 µM (inconclusive)

SMILES: O=C(NC1CCCN(CCc2ccccc2)C1)C1CCCC1 (stereo unspecified)
EC50 [2]: > 60 µM (not active)
EC50 [3]: 1.3 µM (active)

AC50 [4]: 15.8 µM (inconclusive)
SMILES: COCC(=O)N1CCC2(CCN(Cc3ccncc3)CC2)CC1

SMILES: O[C@@H]1[C@@H]2c3cc4c(cc3CN3CCC(=C[C@@H]1O)[C@H]23)OCO4
AC50 [5]: 15.8 µM (inconclusive)

SMILES: O=C(O)C(Cc1ccccc1)Cc1ccccc1
AC50 [5]: 0.00501 µM (inconclusive)

SMILES: O=C(CCn1cnc(-c2ccccc2)c1-c1ccccc1)N/N=C/c1ccccc1O
EC50 [7]: 2.13 µM (active)
EC50 [8]: 0.47 µM (active)

SMILES: C=CCN1C[C@H](C)N([C@H](c2ccc(C(=O)N(CC)CC)cc2)c2cccc(O)c2)C[C@H]1C
AC50 [5]: 39.8 µM (inconclusive)

AC50 [4]: 12.6 µM (inconclusive)
SMILES: COc1ccccc1/C=C/C=N/N1CCN(Cc2cccc3ccccc23)CC1

SMILES: CC(=O)Nc1ccc(/C(C)=N/Nc2nc(Nc3ccccc3)nc(N3CCOCC3)n2)cc1
EC50 [2]: 50.7 µM (active)
EC50 [3]: 0.345 µM (active)

SMILES: O=C(N/N=C/c1cc([N+](=O)[O-])ccc1O)c1c[nH]c2ccccc12
AC50 [6]: 6.85 µM (active)

SMILES: CC(C)CC(=O)O/N=C1\C(=O)N(Cc2ccc(Cl)cc2)c2ccc([N+](=O)[O-])cc21
EC50 [3]: 4.6 µM (active)

SMILES: COc1ccc(/C=N\N=C(N)N)cc1
EC50 [2]: > 60 µM (not active)
EC50 [3]: 0.854 µM (active)

AC50 [1]: inconclusive
SMILES: CN(C)C(=N)NCCC[C@H](N)C(=O)O

SMILES: CCOC(=O)Nc1ccc2c(c1)N(C(=O)CCN1CCOCC1)c1ccccc1S2 [MORICIZINE]
EC50 [2]: > 60 µM (not active)
EC50 [3]: 5.85 µM (active)
